“Also recorded” adds a separate entry of the source. Where two headings read alike, the source gives them in different places.
Experiments:
MMP-9 = molecular target: T1, MMP-9 (Homo sapiens, UniProt P14780); assay: De novo T-DEL selection against MMP-9, NGS decoding; type: binding; conditions: for MMP9 SL-C Enrichment Fold: enrichment fold of sub-library SL-C member; for MMP9 SL-C Enrichment Fold / MMP9 SL-C Count: MMP-9 selection, Figure 4a source data; for MMP9 SL-C Count: sequence count of sub-library SL-C member
T1 construct: purchased Sino Biological 10327-HNAH
T1 sequence (P14780 107-707 limits assumed): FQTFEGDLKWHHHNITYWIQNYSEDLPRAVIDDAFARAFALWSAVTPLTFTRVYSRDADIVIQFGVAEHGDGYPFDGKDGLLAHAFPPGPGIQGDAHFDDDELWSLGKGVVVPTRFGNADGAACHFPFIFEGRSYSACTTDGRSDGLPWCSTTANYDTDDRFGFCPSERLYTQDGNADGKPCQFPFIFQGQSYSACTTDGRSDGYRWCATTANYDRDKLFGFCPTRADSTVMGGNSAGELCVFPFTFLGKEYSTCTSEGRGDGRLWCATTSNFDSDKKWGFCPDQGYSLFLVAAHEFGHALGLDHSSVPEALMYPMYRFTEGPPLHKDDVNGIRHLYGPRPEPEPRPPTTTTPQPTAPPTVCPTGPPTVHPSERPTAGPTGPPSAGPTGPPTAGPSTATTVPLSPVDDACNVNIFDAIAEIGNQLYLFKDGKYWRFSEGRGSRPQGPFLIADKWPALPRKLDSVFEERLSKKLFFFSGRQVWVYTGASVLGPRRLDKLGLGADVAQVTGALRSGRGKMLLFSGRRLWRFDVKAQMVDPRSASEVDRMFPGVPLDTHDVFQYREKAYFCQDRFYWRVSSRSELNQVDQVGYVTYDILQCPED
Source text: Matrix metalloproteinases (MMPs) are zinc-dependent endopeptidases capable of degrading and remodeling extracellular matrix components[46],[47]. They are attractive therapeutic targets as high expression levels were detected in various diseases, such as inflammatory diseases, and at different stages of cancers, including metastasis, invasion, and angiogenesis[47]–[53]. As shown in Supplementary Fig. 3c, we performed selections against the two gelatinases (human MMP-2 and human MMP-9) to identify binding fragments for later design and synthesis of small molecule inhibitors. After selection, the three sub-libraries were decoded, and the enrichment was calculated by dividing the post-selection fraction (count/total counts) by the pre-selection fraction (Fig. 4a and Supplementary Fig. 13).
4 µg of MMP-2/MMP-9 was dissolved in 100 µl of selection buffer containing 25 mM Tris-base, 10 mM CaCl2, 150 mM NaCl, 0.05% Tween 20, pH 7.5. 10 µl of 4-Aminophenylmercuric acetate (APMA) (100 mM) solution was added to the protein solution and incubated at 37 °C for 1 h. After activation, the solution was added on top of 40 µl pre-washed Ni-NTA resin and incubated for 30 min on a rotary shaker. The supernatant was discarded, and the resin was washed three times with the selection buffer.
For each independent selection, three sub-libraries were mixed in the selection buffer with a final concentration of 40 nM of each sub-library in 100 µl. The mixture was heat denatured at 90 °C for 1 min and slowly cooled down to allow the formation of the trio-pharmacophore library. The dynamic dual-pharmacophore DEL was provided by DyNAbind GmbH (Merck, DYNA001).
The assembled library was incubated with the protein-bound solid support for 2 h at RT on a rotary shaker. In parallel, selection on bare solid support served as the negative control to exclude promiscuous binders on the resin. After panning, the supernatant was discarded, and the resin was washed three times with 1 ml selection buffer. Finally, 100 µl of 50 mM Tris buffer, pH 7.4 was added to resuspend the resin and the resin was incubated at 95 °C for 5 min to denature the protein, release, and collect the bound library members.
The eluted library members were subjected to sample preparation for NGS. NGS preparation was achieved by two-step PCR. First, the individual selection was indexed using primers containing unique sequences corresponding to each selection. The amplified product was purified from 2% agarose gel. Second, the purified DNA from all selections were pooled in equal amount and subjected to the 2nd PCR step to attach sequences compatible with the NGS flow cell and the sequencing primers. NGS was performed by Novogene UK with Novaseq 6000. Raw data files (fastq files) obtained were decoded using a custom python script and excel. The sequence reads corresponding to each sample was retrieved by searching for the correct index unique to each selection. Then, the code region was extracted from each sequence and assigned to the corresponding identity. The count of each code in each selection sample was obtained by looping through the total reads and counting the occurrence of each code. The enrichment fold of each compound was calculated by first, dividing the count by the total count to get the abundance, second, the abundance after the selection was divided by the abundance of pre-selection to reflect the distribution change of the compound. Next, the enrichment fold was plotted against the count for each member of the library to give the scatter plots as in Fig. 4.

MMP-2 = molecular target: T2, MMP-2 (Homo sapiens, UniProt P08253); assay: MMP-2 inhibition assay (fluorogenic peptide substrate); type: biochemical; conditions: for inhibitory effect: in words
T2 construct: purchased Sino Biological 10082-HNAH
T2 sequence (P08253 110-660): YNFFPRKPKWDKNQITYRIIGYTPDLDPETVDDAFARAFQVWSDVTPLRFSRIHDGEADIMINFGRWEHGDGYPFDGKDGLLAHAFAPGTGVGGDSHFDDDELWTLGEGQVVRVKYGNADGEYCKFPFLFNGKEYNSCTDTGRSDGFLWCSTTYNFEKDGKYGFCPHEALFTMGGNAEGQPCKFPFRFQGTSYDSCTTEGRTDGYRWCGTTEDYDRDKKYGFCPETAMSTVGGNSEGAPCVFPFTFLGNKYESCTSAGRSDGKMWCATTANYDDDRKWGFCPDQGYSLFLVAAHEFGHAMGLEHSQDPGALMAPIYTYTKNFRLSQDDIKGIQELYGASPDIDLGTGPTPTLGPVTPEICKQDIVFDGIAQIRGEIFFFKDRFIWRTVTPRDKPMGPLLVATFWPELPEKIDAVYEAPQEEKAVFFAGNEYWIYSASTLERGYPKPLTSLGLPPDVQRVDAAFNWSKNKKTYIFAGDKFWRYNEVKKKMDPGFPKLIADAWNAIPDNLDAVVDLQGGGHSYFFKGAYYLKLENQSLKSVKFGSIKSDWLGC
Outline: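 Hydrolysis of DNP-Pro-Leu-Gly-Met-Trp-Ser-Arg (25 μM final) was tracked kinetically at em 360 nm over 30 min. Enzymes, APMA-activated and at 10 nM (MMP-9) or 6.5 nM (MMP-2) final, sat 30 min at RT with inhibitor in pH 7.5 Tris buffer with CaCl2 and Brij 35 first. Logistic fitting of Vmax against concentration gave IC50, in triplicate.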

[1] = read-out: Mean (MMP-2, Supplementary fig 16)
[2] = read-out: Mean (MMP-2 dose-response, Supplementary fig 15)
[3] = read-out: Mean (dose-response, Supplementary fig 17)
[4] = read-out: Normalized activity (Mean)

For Cn1c(O)nc2cc(C(=O)O)cnc21 [Compound 826], the “MMP9 SL-A Count” value (MMP-9; NGS sequence count of sub-library SL-A building block, de novo T-DEL selection against MMP-9) was 1891, the “MMP9 SL-C Enrichment Fold” value (MMP-9) was 4.359 and the “MMP9 SL-C Count” value (MMP-9) was 10836. For the same compound, the “MMP9 SL-A Enrichment Fold” value (MMP-9; sub-library SL-A building block, de novo T-DEL selection against MMP-9) was 1.691, the remaining activity at 0.0305176 µM (MMP-2; Figure 5a, fragment concentration 0.0305176 µM, read-out: Normalized activity (Mean)) was 105% and the remaining activity at 0.12207 µM (MMP-2; Figure 5a, fragment concentration 0.12207 µM, read-out: Normalized activity (Mean)) was 112%. It also gave a remaining activity at 0.488281 µM (MMP-2; Figure 5a, fragment concentration 0.488281 µM, read-out: Normalized activity (Mean)) of 97.4%, a remaining activity at 1.95312 µM (MMP-2; Figure 5a, fragment concentration 1.95312 µM, read-out: Normalized activity (Mean)) of 96.2% and a remaining activity at 7.8125 µM (MMP-2; Figure 5a, fragment concentration 7.8125 µM, read-out: Normalized activity (Mean)) of 103%. It also gave a remaining activity at 31.25 µM (MMP-2; Figure 5a, fragment concentration 31.25 µM, read-out: Normalized activity (Mean)) of 92.9%, a remaining activity at 125 µM (MMP-2; Figure 5a, fragment concentration 125 µM, read-out: Normalized activity (Mean)) of 97.7% and a remaining activity at 500 µM (MMP-2; Figure 5a, fragment concentration 500 µM, read-out: Normalized activity (Mean)) of 89.5%. For the same compound, the remaining activity at 0.12 µM (MMP-2; MMP-2, concentration 0.12 µM, read-out: Mean (MMP-2, Supplementary fig 16)) was 112%, the remaining activity at 0.49 µM (MMP-2; MMP-2, concentration 0.49 µM, read-out: Mean (MMP-2, Supplementary fig 16)) was 97.4% and the remaining activity at 1.95 µM (MMP-2; MMP-2, concentration 1.95 µM, read-out: Mean (MMP-2, Supplementary fig 16)) was 96.2%. The remaining activity at 7.81 µM (MMP-2; MMP-2, concentration 7.81 µM, read-out: Mean (MMP-2, Supplementary fig 16)) was 103%, the remaining activity at 31.25 µM (MMP-2; MMP-2, concentration 31.25 µM, read-out: Mean (MMP-2, Supplementary fig 16)) was 92.9% and the remaining activity at 125 µM (MMP-2; MMP-2, concentration 125.00 µM, read-out: Mean (MMP-2, Supplementary fig 16)) was 97.7%. It also gave a remaining activity at 500 µM (MMP-2; MMP-2, concentration 500.00 µM, read-out: Mean (MMP-2, Supplementary fig 16)) of 89.5%, a remaining activity at 0.12 µM (MMP-2; MMP-2, concentration 0.12 µM, read-out: Mean (MMP-2 dose-response, Supplementary fig 15)) of 112% and a remaining activity at 0.12 µM (MMP-2; MMP-2, concentration 0.12 µM, read-out: Mean (dose-response, Supplementary fig 17)) of 112%. For the same compound, the remaining activity at 0.49 µM (MMP-2; MMP-2, concentration 0.49 µM, read-out: Mean (MMP-2 dose-response, Supplementary fig 15)) was 97.4%, the remaining activity at 0.49 µM (MMP-2; MMP-2, concentration 0.49 µM, read-out: Mean (dose-response, Supplementary fig 17)) was 97.4% and the remaining activity at 1.95 µM (MMP-2; MMP-2, concentration 1.95 µM, read-out: Mean (MMP-2 dose-response, Supplementary fig 15)) was 96.2%. For the same compound, the remaining activity at 1.95 µM (MMP-2; MMP-2, concentration 1.95 µM, read-out: Mean (dose-response, Supplementary fig 17)) was 96.2%, the remaining activity at 7.81 µM (MMP-2; MMP-2, concentration 7.81 µM, read-out: Mean (MMP-2 dose-response, Supplementary fig 15)) was 103% and the remaining activity at 7.81 µM (MMP-2; MMP-2, concentration 7.81 µM, read-out: Mean (dose-response, Supplementary fig 17)) was 103%. It also gave a remaining activity at 31.25 µM (MMP-2; MMP-2, concentration 31.25 µM, read-out: Mean (MMP-2 dose-response, Supplementary fig 15)) of 92.9%, a remaining activity at 31.25 µM (MMP-2; MMP-2, concentration 31.25 µM, read-out: Mean (dose-response, Supplementary fig 17)) of 92.9% and a remaining activity at 125 µM (MMP-2; MMP-2, concentration 125.00 µM, read-out: Mean (MMP-2 dose-response, Supplementary fig 15)) of 97.7%. It also gave a remaining activity at 125 µM (MMP-2; MMP-2, concentration 125.00 µM, read-out: Mean (dose-response, Supplementary fig 17)) of 97.7%, a remaining activity at 500 µM (MMP-2; MMP-2, concentration 500.00 µM, read-out: Mean (MMP-2 dose-response, Supplementary fig 15)) of 89.5% and a remaining activity at 500 µM (MMP-2; MMP-2, concentration 500.00 µM, read-out: Mean (dose-response, Supplementary fig 17)) of 89.5%. The inhibitory effect (MMP-2) was “No inhibitory effects could be measured; also recorded: did not exhibit meaningful activity”.
In the case of O=C(O)c1cncc(O)c1 [Compound 828], the “MMP9 SL-C Enrichment Fold” value (MMP-9) is reported as 10.2969, the “MMP9 SL-C Count” value (MMP-9) is reported as 32127 and the inhibitory effect (MMP-2) is reported as “high µM range”. For the same compound, the IC50 (MMP-2; mean ± SE, n.d: not detected, Fig. 5d unit inferred, µM, read-out: IC50) was 385 ± 67.3 µM, the remaining activity at 0.0156 µM (MMP-2; [1]) was 104% and the remaining activity at 0.08 µM (MMP-2; [1]) was 94%. For the same compound, the remaining activity at 0.39 µM (MMP-2; [1]) was 105%, the remaining activity at 1.95 µM (MMP-2; [1]) was 107% and the remaining activity at 9.76 µM (MMP-2; [1]) was 90.1%. For the same compound, the remaining activity at 48.78 µM (MMP-2; [1]) was 83.6%, the remaining activity at 243.9 µM (MMP-2; [1]) was 67.9% and the remaining activity at 1219.51 µM (MMP-2; [1]) was 0%. It also gave a remaining activity at 0.0156 µM (MMP-2; [2]) of 104%, a remaining activity at 0.08 µM (MMP-2; [2]) of 94% and a remaining activity at 0.39 µM (MMP-2; [2]) of 105%. It also gave a remaining activity at 1.95 µM (MMP-2; [2]) of 107%, a remaining activity at 9.76 µM (MMP-2; [2]) of 90.1% and a remaining activity at 48.78 µM (MMP-2; [2]) of 83.6%. The remaining activity at 243.9 µM (MMP-2; [2]) was 67.9%, the remaining activity at 1219.51 µM (MMP-2; [2]) was 0% and the remaining activity at 0.0156 µM (MMP-2; [3]) was 104%. It also gave a remaining activity at 0.08 µM (MMP-2; [3]) of 94%, a remaining activity at 0.39 µM (MMP-2; [3]) of 105% and a remaining activity at 1.95 µM (MMP-2; [3]) of 107%. It also gave a remaining activity at 9.76 µM (MMP-2; [3]) of 90.1%, a remaining activity at 48.78 µM (MMP-2; [3]) of 83.6% and a remaining activity at 243.9 µM (MMP-2; [3]) of 67.9%. For the same compound, the remaining activity at 1219.51 µM (MMP-2; [3]) was 0%, the remaining activity at 0.0156098 µM (MMP-2; [4]) was 104% and the remaining activity at 0.0780488 µM (MMP-2; [4]) was 94%. For the same compound, the remaining activity at 0.390244 µM (MMP-2; [4]) was 105%, the remaining activity at 1.95122 µM (MMP-2; [4]) was 107% and the remaining activity at 9.7561 µM (MMP-2; [4]) was 90.1%. It also gave a remaining activity at 48.7805 µM (MMP-2; [4]) of 83.6%, a remaining activity at 243.902 µM (MMP-2; [4]) of 67.9% and a remaining activity at 1219.51 µM (MMP-2; [4]) of 0%.

— article PMC10023787, “Trio-pharmacophore DNA-encoded chemical library for simultaneous selection of fragments and linkers” (Nature Communications, 2023)
